Assay results taken from ChEMBL document CHEMBL1201862, “PubChem BioAssay data set” (2004).
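All cell lines were grown in 96-well plates and treated with compound for 48 hours. Abbreviation: GI50, concentration required for 50% inhibition of growth.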 Calls of active or inactive are those of the source. Cut-off read from the data, not from the text of the source: active = GI50 up to about 1.1 µM and inactive = higher.

Key:
Test in all cases: DTP human tumour cell line panel, 48 h
[1] = tested on: A549
[2] = tested on: ACHN
[3] = tested on: CAKI-1
[4] = tested on: DMS-114
[5] = tested on: HT-29
[6] = tested on: M14
[7] = tested on: NCI-H23
[8] = tested on: NCI-H460
[9] = tested on: OVCAR-3
[10] = tested on: OVCAR-5
[11] = tested on: SK-MEL-2
[12] = tested on: SNB-75
[13] = tested on: SW-620
[14] = tested on: U-251
[15] = tested on: A498
[16] = tested on: SN12C
[17] = tested on: Hs-578T
[18] = tested on: MDA-MB-231
[19] = tested on: MDA-N
[20] = tested on: NCI/ADR-RES

Measured: GI50

Cc1cc(C=O)c2c(=O)c3c(O)ccc(/C=C/C(C)C)c3oc2c1
inactive: [1] > 100 µM | [2] 46.3 µM | [3] 64.7 µM | [4] 41.4 µM | [5] > 100 µM | [6] 42.1 µM | [7] 46.7 µM | [8] > 100 µM | [9] 43.2 µM | [10] > 100 µM | [11] > 100 µM | [12] 95.1 µM | [13] 28.1 µM | [14] 41.1 µM

CC(C)C(=O)/C=C/c1ccc(Cl)cc1
inactive: [15] > 10 µM | [1] 21.7 µM | [2] 11.2 µM | [4] 16.9 µM | [5] 14.1 µM | [6] 17.1 µM | [7] 17 µM | [8] 15.7 µM | [9] 14.4 µM | [10] 20.2 µM | [11] 19.4 µM | [16] 7.73 µM | [12] 15.8 µM | [13] 3.99 µM | [14] 12.9 µM

NC1=NN(c2ccccc2)C(=O)C1/C(=N\NC(=O)c1cc2ccccc2cc1O)C(=O)Nc1cccc(C(F)(F)F)c1 (stereo not drawn)
inactive: [1] 37.2 µM | [2] 30.1 µM | [4] 24.8 µM | [5] 41 µM | [6] 28.7 µM | [7] 29.2 µM | [8] 27.1 µM | [9] 25.7 µM | [10] 26.2 µM | [11] 22.4 µM | [16] 46.6 µM | [12] > 100 µM | [13] 34.7 µM | [14] 37.7 µM

CC1(C)C(=O)C(C)(C)C1=NN
inactive: [1] > 100 µM | [2] > 100 µM | [3] > 100 µM | [4] > 100 µM | [5] > 100 µM | [6] > 100 µM | [7] > 100 µM | [8] > 100 µM | [9] > 100 µM | [10] > 100 µM | [16] > 100 µM | [12] > 100 µM | [13] > 100 µM | [14] > 100 µM

O=C(NCCN1CCCCC1)c1ccc(I)cc1
inactive: [15] 24.8 µM | [1] > 100 µM | [2] > 100 µM | [3] > 100 µM | [5] 39.5 µM | [17] 61 µM | [6] > 100 µM | [18] > 100 µM | [19] > 100 µM | [7] > 100 µM | [8] > 100 µM | [20] > 100 µM | [9] > 100 µM | [10] > 100 µM | [11] > 100 µM | [16] > 100 µM | [12] 89.3 µM | [13] > 100 µM | [14] > 100 µM

COc1cccc(NC(=O)CSc2nnc(-c3ccc(NC(C)=O)cc3)o2)c1
inactive: [1] > 100 µM | [2] > 100 µM | [3] > 100 µM | [4] > 100 µM | [5] 39.6 µM | [6] > 100 µM | [7] > 100 µM | [8] > 100 µM | [9] > 100 µM | [10] 83.2 µM | [11] > 100 µM | [16] > 100 µM | [12] 30.5 µM | [13] > 100 µM | [14] > 100 µM

COc1cc2c(cc1OCCN1C(=O)c3cccc4cccc(c34)C1=O)N=C[C@@H]1CCCN1C2=O
inactive: [15] 9.04 µM | [1] 8.65 µM | [2] 8.07 µM | [3] 7.5 µM | [5] 9.46 µM | [17] 7.8 µM | [6] 8.34 µM | [18] 7.41 µM | [19] 8.02 µM | [7] 10.4 µM | [8] 5.89 µM | [20] 15.8 µM | [9] 6.68 µM | [10] 10.9 µM | [11] 7.29 µM | [16] 7.93 µM | [12] 13.3 µM | [13] 7.66 µM | [14] 6.15 µM

COc1ccc2cc(C(=O)O)ccc2c1OC
inactive: [15] > 100 µM | [1] > 100 µM | [2] > 100 µM | [3] > 100 µM | [5] > 100 µM | [17] > 100 µM | [6] > 100 µM | [18] > 100 µM | [19] > 100 µM | [7] > 100 µM | [8] > 100 µM | [20] > 100 µM | [9] > 100 µM | [10] > 100 µM | [11] > 100 µM | [16] > 100 µM | [12] 43 µM | [13] > 100 µM | [14] > 100 µM

COC(=O)c1ccc2c(c1)sc1nc(-c3ccc(OC)cc3)cn12
inactive: [15] > 100 µM | [1] > 100 µM | [2] > 100 µM | [3] > 100 µM | [5] 83.4 µM | [17] 37.3 µM | [6] > 100 µM | [18] > 100 µM | [19] 78.9 µM | [7] > 100 µM | [8] > 100 µM | [20] > 100 µM | [9] > 100 µM | [10] > 100 µM | [11] > 100 µM | [16] > 100 µM | [12] 34.8 µM | [13] > 100 µM | [14] 31.7 µM

Nc1cccc(S(=O)(=O)NCC(=O)O)c1
inactive: [1] > 100 µM | [2] > 100 µM | [3] > 100 µM | [4] > 100 µM | [5] > 100 µM | [6] > 100 µM | [7] > 100 µM | [8] > 100 µM | [9] > 100 µM | [10] > 100 µM | [11] > 100 µM | [16] > 100 µM | [12] > 100 µM | [13] > 100 µM | [14] > 100 µM

COc1ccc(C[C@]23CCC(=O)N2CCc2cc(OC)c(O)cc23)cc1O
inactive: [15] > 100 µM | [1] > 100 µM | [2] > 100 µM | [3] > 100 µM | [4] > 100 µM | [5] > 100 µM | [6] > 100 µM | [7] > 100 µM | [8] > 100 µM | [9] > 100 µM | [10] > 100 µM | [16] > 100 µM | [12] > 100 µM | [13] > 100 µM

COC(=O)C1OC(O[C@H]2CC[C@]3(C)[C@H]4CC=C5[C@@H]6CC(C)(C)CC[C@]6(C(=O)OC6OCC(O)C(O)C6OC6OC(C)C(OC7OCC(OC8OCC(O)C(O)C8O)C(O)C7O)C(O)C6O)[C@H](O)C[C@@]5(C)[C@]4(C)CC[C@H]3C2(C)C)C(O)C(O)C1O (stereo partly drawn)
inactive: [15] 2.03 µM | [1] 2.93 µM | [2] 3.54 µM | [3] 2.87 µM | [5] 2.71 µM | [17] 6.15 µM | [6] 1.85 µM | [18] 2.71 µM | [19] 1.78 µM | [7] 2.43 µM | [8] 16 µM | [20] 6.41 µM | [9] 6.82 µM | [10] 2.77 µM | [11] 3.02 µM | [16] 1.8 µM | [12] 3.44 µM | [13] 5.14 µM | [14] 5.83 µM

CCOC(=O)/C(C#N)=C/N(CC)/N=C/c1ccccc1
inactive: [15] > 100 µM | [1] > 100 µM | [2] > 100 µM | [3] > 100 µM | [5] > 100 µM | [17] 54.7 µM | [6] > 100 µM | [18] > 100 µM | [19] > 100 µM | [7] > 100 µM | [8] > 100 µM | [20] 60.4 µM | [9] > 100 µM | [10] > 100 µM | [11] > 100 µM | [16] > 100 µM | [12] > 100 µM | [13] > 100 µM | [14] > 100 µM

CC1(O)CCC2(C)C(=O)C1(C)CCC21OCCO1 (stereo not drawn)
inactive: [1] > 100 µM | [2] > 100 µM | [4] > 100 µM | [5] > 100 µM | [6] > 100 µM | [7] > 100 µM | [8] > 100 µM | [9] > 100 µM | [10] > 100 µM | [11] > 100 µM | [16] > 100 µM | [13] > 100 µM | [14] > 100 µM

COc1ccc(CNc2cc(OC)cc(OC)c2)cc1
inactive: [1] 60.8 µM | [2] > 69.3 µM | [4] 39.4 µM | [6] > 100 µM | [7] 40.6 µM | [8] > 86.1 µM | [9] 50.8 µM | [11] > 74 µM | [12] 35.3 µM | [13] > 100 µM | [14] > 88.5 µM

CC1CC[C@@]2(OC1)O[C@H]1C[C@H]3[C@@H]4CC[C@H]5C[C@@H](OC6OC(CO)C(OC7OC(CO)C(OC8OC(CO)C(O)C(OC9OC(C)C(OC%10OC(C)C(O)C(O)C%10O)C(O)C9O)C8OC8OCC(O)C(O)C8O)C(O)C7O)C(O)C6O)CC[C@]5(C)[C@H]4CC(=O)[C@]3(C)[C@H]1[C@@H]2C (stereo partly drawn)
inactive: [15] 18.2 µM | [1] 23.2 µM | [2] 17.2 µM | [3] 15.6 µM | [5] 36 µM | [17] 24.2 µM | [6] 20.8 µM | [18] 16.1 µM | [19] 20 µM | [7] 20.5 µM | [8] 17.8 µM | [20] 23.7 µM | [9] 22.6 µM | [10] 20.8 µM | [11] 16.1 µM | [16] 20.9 µM | [12] 19.8 µM | [13] 20.3 µM | [14] 18.7 µM
